We go through seven molecules from PMC4632357, “Impact of chrysosplenetin on the pharmacokinetics and anti-malarial efficacy of artemisinin against Plasmodium berghei as well as in vitro CYP450 enzymatic activities in rat liver microsome” (Malaria Journal, 2015).

On the set-up of series [1]: method as in PMID 17521300, PMID 18064444, PMID 9443848. Conditions: cited from earlier work.
A further series deals with P. berghei K173 strain. Kind of series: In vivo anti-malarial efficacy (chemo-suppressive study) in infected mice. To be noted: for Parasitemia: placebo 22.15 ± 6.25.
Series [2] is described as follows: Pharmacokinetics of ART in rats in absence and presence of CHR. It counts as in vivo. To be noted: ART in rat plasma, ART 5 mg/kg intramuscular on day 3, 1 h after 3-day oral CHR (5, 10, 20 mg/kg for 1:1, 1:2, 1:4) or CMC-Na, n = 5, mean ± SD. The procedure: Male SD rats (200-240 g) were supplied by Laboratory Animal Center of […] Medical University (Grade II, Certificate No. […] Animals were acclimatized in environmentally controlled breeding cages for at least 3 days before being used and were provided with standard laboratory food and water and were fasted for 12 h prior to the study. Water was freely available for rats during experiments. The experimental protocol was approved by the University Ethics Committee. All procedures involving animals were in accordance with the Regulations of the Experimental Animal Administration, State Committee of Science and Technology, People's Republic of China. 20 rats were randomly divided into 4 groups (n = 5). Group A was the control vehicle (ART alone) and group L, M, and H were the combination groups with CHR in three fixed ratios (1:1, 1:2, and 1:4). […] Group A was orally given by 0.5 % CMC-Na solution once per day for 3 days. On day 3, an intramuscular injection of ART (5 mg/kg) was subsequently administered 1 h after CHR or CMC-Na solution pre-exposure. […] Two hours later, animals took food and water freely to replenish. Plasma samples were separated by centrifugation 3500g for 10 min and 200 μL plasmas were stored at -20 °C until analysis. To 100 μL blank plasma, 50 μL ARM working solution (IS, 2 μg/mL), 100 μL methanol aqueous solution (50:50, v/v), and a standard solution or quality control (QC) solution were added. After vortex mixing for 1 min, the sample was extracted with 3 × 3 mL of methyl tert-butyl ether with gentle shaking for 10 min followed by centrifugation at 3500g for 10 min. […] The residue was reconstituted in 100 μL methanol and was filtered through a 0.22 μm nylon filter. Aliquots (10 μL) of the solution were injected onto the LC-MS analysis. Pharmacokinetic parameters were computed from plasma concentration-time profiles of ART by software DAS 3.0.

Series [3] has as its system CYP2A. Kind of series: In vitro rat liver microsome experiment, CYP2A (probe CA). Background: Liver microsomes are vesicles of endoplasmic reticulum, rich in cytochrome P450 enzymes.
The subject of series [4] is CYP2A. Kind of series: in vitro. Conditions: rat.
The next series concerns CYP2D6. Briefly: In vitro rat liver microsome experiment, CYP2D6 (probe DM). In kind it is in vitro ADME. The procedure:
(§1) Total reaction volume was complemented to 200 μL by PBS. After pre-incubating for 3 min at 37 °C, the reaction was initiated by the addition of NADPH solution (incubation time was optimized as 45 min for PN; 60 min for CA, 15 min for OPZ; 20 min for DM; 90 min for CLZ; 15 min for MDZ). 200 μL ice acetonitrile was added as stop reagent. After a vortex for 3 min and centrifugation for 10 min at 14,000g, an aliquot of 20 μL supernatant was injected into the HPLC system at an interval of 10 min. The amount of methanol in diluted concentrations (<1 %) had no effect on liver microsomes. All the testing groups were in three replicates (n = 3). Under the optimized condition, Vmax, Michaelis constant (Km), enzyme activity (E%), and IC50 values were obtained.

In series [5] the test system is CYP2C19. Briefly: In vitro rat liver microsome experiment, CYP2C19 (probe OPZ).
The target of another series is T1, CYP1A2 (Rattus norvegicus, UniProt P04799).
T1 sequence (P04799 1-513): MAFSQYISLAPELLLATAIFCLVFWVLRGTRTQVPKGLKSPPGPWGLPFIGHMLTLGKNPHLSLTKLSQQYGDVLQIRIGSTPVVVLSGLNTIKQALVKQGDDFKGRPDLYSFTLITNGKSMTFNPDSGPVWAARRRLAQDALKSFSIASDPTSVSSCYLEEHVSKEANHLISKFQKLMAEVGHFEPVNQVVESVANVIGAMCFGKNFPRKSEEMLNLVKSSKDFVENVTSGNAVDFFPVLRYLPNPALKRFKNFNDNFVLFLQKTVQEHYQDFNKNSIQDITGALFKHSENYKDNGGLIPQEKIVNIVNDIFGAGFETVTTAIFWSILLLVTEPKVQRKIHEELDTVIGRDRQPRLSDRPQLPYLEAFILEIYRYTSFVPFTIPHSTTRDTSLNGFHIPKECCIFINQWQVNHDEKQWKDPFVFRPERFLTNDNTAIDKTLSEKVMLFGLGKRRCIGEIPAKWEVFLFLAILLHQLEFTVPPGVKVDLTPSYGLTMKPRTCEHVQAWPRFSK
Briefly: In vitro rat liver microsome experiment, CYP1A2 (probe PN). It counts as in vitro ADME.

The target of another series is CYP2E1 (Rattus norvegicus, UniProt P05182). Kind of series: In vitro rat liver microsome experiment, CYP2E1 (probe CLZ). It counts as in vitro ADME.
CYP2E1, sequence (P05182 whole entry): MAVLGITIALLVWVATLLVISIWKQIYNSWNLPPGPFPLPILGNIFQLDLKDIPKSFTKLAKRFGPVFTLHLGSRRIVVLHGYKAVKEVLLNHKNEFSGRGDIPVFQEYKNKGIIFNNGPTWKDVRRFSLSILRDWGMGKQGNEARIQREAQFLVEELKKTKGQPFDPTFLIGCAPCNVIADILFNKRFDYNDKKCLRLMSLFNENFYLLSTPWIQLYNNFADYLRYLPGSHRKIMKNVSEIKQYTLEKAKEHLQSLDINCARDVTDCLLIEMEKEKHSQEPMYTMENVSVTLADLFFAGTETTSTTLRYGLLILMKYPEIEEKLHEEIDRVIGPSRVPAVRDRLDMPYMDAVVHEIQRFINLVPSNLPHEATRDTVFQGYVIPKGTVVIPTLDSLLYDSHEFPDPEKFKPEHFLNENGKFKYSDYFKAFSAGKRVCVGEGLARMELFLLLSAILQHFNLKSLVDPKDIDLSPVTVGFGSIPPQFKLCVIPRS
The test system of a further series is CYP3A. Kind of series: In vitro rat liver microsome experiment, CYP3A (probe MDZ). It counts as in vitro ADME. The protocol: as §1
Incubation systems including 1.0 mg/mL RLM, PN (12.5, 25.0, and 50.0 μM), NPDPH, and CHR (0, 2, 4, 8 μM) for 1A2 or 0.5 mg/mL RLM, MDZ (2.5, 5.0, 10.0 μM), NPDPH, and CHR (0, 2, 4, 8 μM) for CYP3A were employed as above (n = 3). A serial of Lineweaver–Burk plots by 1/[S] versus 1/V were prepared individually under different concentrations of CHR. The location of intersection point for the linear lines decided the type of inhibition. Namely, if the point lied in Y axis it was competitive inhibition and if it lied in X axis it was non-competitive inhibition. Finally, if the linear lines were paralleled, it was uncompetitive inhibition. Concomitantly, inhibition constant (Ki) was calculated when a second plotting was given by intercepts of the four lines versus [I] (inhibitor concentration).

Series [6] relates to CYP2C19. Kind of series: in vitro. Conditions: rat.
Substrate in series [7]: CCOc1ccc(NC(C)=O)cc1
Briefly: cells, lysate or membranes named. To be noted: other: probe substrate in rat liver microsomes; 37.0 °C.

The mark [8] stands for this setting: probe substrate in rat liver microsomes.
Where [9] appears, read: rat liver microsomes, CHR 0–50 μM, P > 0.05.
[10] abbreviates: moderate: 1 < IC50 < 10 μM, criteria of ref 21.
[11] abbreviates: Lineweaver–Burk plots, rat liver microsomes.

With `C[C@@H]1CC[C@H]2[C@@H](C)C(=O)O[C@@H]3O[C@@]4(C)CC[C@@H]1[C@]32OO4` [ART, Artemisinin], the oral bioavailability in [1] is given as 8–10%. This molecule gave a Parasitemia in the series with P. berghei K173 strain (Kunming mice, ART 5 mg/kg alone or with CHR 5, 10, 20 mg/kg (1:1, 1:2, 1:4), 3 days, 24 h after last dosing, n = 10) of 13.95 ± 7.89 %. Further, the “decrease of parasitaemia (%) compared with placebo” value in the series with P. berghei K173 strain (mice, P < 0.05) stood at 1.59 folds. Besides, the Inhibition in the series on P. berghei K173 strain (relative to placebo, Kunming mice, ART 5 mg/kg alone or with CHR 5, 10, 20 mg/kg, n = 10) came out at 37.06%. Besides, in series [2], the “AUC0–t” value is 390.58 ± 32.46 µg·h/mL. In series [2] (male), the maximum concentration (Cmax) came to 51.6 ± 9.47 µg/mL and the half-life is 3.62 ± 0.86 h. Further, the clearance in series [2] (male, read-out: CLz (converted)) is 0.217 mL/min/kg.
As to `O=c1ccc2ccccc2o1` [CA, coumarin, reference compound], the Vmax in the series with CYP2A [3] (setting [8]) is reported as 0.12 nmol/min/mg proteins. In the series on CYP2A [4], the Km at 60 min turned out to be 8.9 µM.
For the molecule `COc1cc(-c2oc3cc(OC)c(OC)c(O)c3c(=O)c2OC)ccc1O` [CHR, chrysosplenetin], the “impact on enzyme activity” value with CYP2A [3] (setting [9]) and with CYP2D6 (setting [9]) was “no impact” each time. Further, the Parasitemia in the series on P. berghei K173 strain (CHR alone 5 mg/kg (CHR-L), Kunming mice, n = 10) is 19.74 ± 13.33%; in the series with P. berghei K173 strain (CHR alone 10 mg/kg (CHR-M), Kunming mice, n = 10), 17.19 ± 5.45%; in the series with P. berghei K173 strain (CHR alone 20 mg/kg (CHR-H), Kunming mice, n = 10) it was 18.32 ± 8.86%. In addition, the inhibitor strength class entry is “moderate inhibitor” in the series with CYP2C19 [5] (setting [10]); “moderate inhibitor” at CYP1A2 (setting [10]); “weak inhibitor” on CYP2E1 (weak: IC50 >10 μM, criteria of ref 21); “moderate inhibitor” in the series with CYP3A (setting [10]). For the same molecule, the half-inhibitory concentration (IC50) at 15 min came to 6.23 µM in the series with CYP2C19 [5] (rat, microsomes) and 3.38 µM in the series with CYP3A (probe midazolam (MDZ) 5 μM, rat liver microsomes, MDZ 5 μM, GraphPad Prism 5.0). Further, on CYP1A2 (1.0 mg/mL RLM, PN 12.5, 25.0, 50.0 μM, CHR 0, 2, 4, 8 μM, second plot of Lineweaver–Burk intercepts), the Ki came out at 4.07 µM. Also, the inhibition type result against CYP1A2 (setting [11]) is “noncompetitive”; in the series on CYP3A (setting [11]), “uncompetitive”. Also, the IC50 against CYP1A2 (rat liver microsomes, PN 25 μM, GraphPad Prism 5.0) is 4.61 µM; at CYP2E1 (rat liver microsomes, CLZ 15 μM, GraphPad Prism 5.0), 28.2 µM. The inhibitory constant (Ki) at 15 min in the series on CYP3A (rat, rat liver microsomes, probe midazolam (MDZ) 2.5, 0.5 mg/mL RLM, MDZ 2.5, 5.0, 10.0 μM, CHR 0, 2, 4, 8 μM, second plot of Lineweaver–Burk intercepts) was 3.71 µM.
On to `COc1ccc2c(c1)[C@]13CCCC[C@@H]1[C@H](C2)N(C)CC3` [DM, dextromethophan], for which, in the series on CYP2D6 (setting [8]), the Km stood at 28.9 µM and the Vmax worked out at 0.20 nmol/min/mg proteins.
In the case of `Cc1ncc2n1-c1ccc(Cl)cc1C(c1ccccc1F)=NC2` [MDZ, Midazolam, reference compound], in the series on CYP3A (setting [8]), the Km at 15 min was found to be 7.88 µM and the Vmax is on record as 0.81 nmol/min/mg proteins.
For the molecule `COc1ccc2[nH]c([S+]([O-])Cc3ncc(C)c(OC)c3C)nc2c1` (centres unmarked) [OPZ, omeprazole, reference compound], the Michaelis-Menten constant (Km) at 15 min in the series on CYP2C19 [6] is 24.1 µM. Besides, the Vmax with CYP2C19 [5] (setting [8]) was determined as 0.58 nmol/min/mg proteins.

B1: CYP1A2 (Rattus norvegicus) (protein)
chain: T1 sequence (P04799 1-513)
B1: in series [7], the Michaelis constant (Km) came out at 30.88 µM and the Vmax is reported as 0.14 nmol/min/mg proteins.

One may read the Inhibition as the drop in the measured response relative to a control, in per cent. As a reminder, the Cmax is the maximum level reached in the sampled fluid or tissue. Broadly, the half-life is the time in which the quantity being followed falls by half. As a reminder, the Km is the substrate concentration at which the rate is half of its maximum. Usually IC50 stands for the point on the concentration scale where inhibition reaches its midpoint. For orientation: Ki means the dissociation constant of the complex between target and ligand, obtained from inhibition or displacement. Read a high Ki as a looser hold on the target.
